Results published in ChEMBL document CHEMBL4813950, “Comparing the efficacy and selectivity of Ck2 inhibitors. A phosphoproteomics approach” (Eur J Med Chem, 2021).
The source made the active and inactive calls. The calls are words filed in the database; no cut-off is given here.

Legend:
Assay type in all cases: cell-based
[1] = biological target: Nucleolar protein 56 (Mus musculus) (UniProt Q9D6Z1); assay: Inhibition of Nop56 in mouse C2C12 cells assessed as reduction in phospho-sites occupancy at 4 uM after 5 hrs by SILAC based LC-MS/MS analysis relative to control
[2] = biological target: Eukaryotic translation initiation factor 5B (Mus musculus) (UniProt Q05D44); assay: Inhibition of eukaryotic translation initiation factor 5B in mouse C2C12 cells assessed as reduction in phospho-sites occupancy at 4 uM after 5 hrs by SILAC based LC-MS/MS analysis relative to control
[3] = biological target: Eukaryotic translation initiation factor 2 subunit 2 (Mus musculus) (UniProt Q99L45); assay: Inhibition of eukaryotic translation initiation factor 2 subunit 2 in mouse C2C12 cells assessed as reduction in phospho-sites occupancy at 4 uM after 5 hrs by SILAC based LC-MS/MS analysis relative to control
[4] = biological target: UPF0690 protein C1orf52 homolog (Mus musculus) (UniProt Q9CWU4); assay: Inhibition of UPF0690 protein C1orf52 homolog in mouse C2C12 cells assessed as reduction in phospho-sites occupancy at 4 uM after 5 hrs by SILAC based LC-MS/MS analysis relative to control
[5] = biological target: DNA polymerase delta subunit 3 (Mus musculus) (UniProt Q9EQ28); assay: Inhibition of Pold3 in mouse C2C12 cells assessed as reduction in phospho-sites occupancy at 4 uM after 5 hrs by SILAC based LC-MS/MS analysis relative to control
[6] = biological target: Serine/threonine-protein phosphatase 6 regulatory subunit 3 (Mus musculus) (UniProt Q922D4); assay: Inhibition of Ppp6r3 in mouse C2C12 cells assessed as reduction in phospho-sites occupancy at 4 uM after 5 hrs by SILAC based LC-MS/MS analysis relative to control
[7] = biological target: Small ubiquitin-related modifier 1 (Mus musculus) (UniProt P63166); assay: Inhibition of Sumo1 in mouse C2C12 cells assessed as reduction in phospho-sites occupancy at 4 uM after 5 hrs by SILAC based LC-MS/MS analysis relative to control
[8] = biological target: tRNA (guanine(26)-N(2))-dimethyltransferase (Mus musculus) (UniProt Q3TX08); assay: Inhibition of Trmt1 in mouse C2C12 cells assessed as reduction in phospho-sites occupancy at 4 uM after 5 hrs by SILAC based LC-MS/MS analysis relative to control
[9] = biological target: Centrosomal protein of 170 kDa (Mus musculus) (UniProt Q6A065); assay: Inhibition of Cep170 in mouse C2C12 cells assessed as reduction in phospho-sites occupancy at 4 uM after 5 hrs by SILAC based LC-MS/MS analysis relative to control
[10] = biological target: Serine/threonine-protein kinase PAK 1 (Mus musculus) (UniProt O88643); assay: Inhibition of Pak1 in mouse C2C12 cells assessed as reduction in phospho-sites occupancy at 4 uM after 5 hrs by SILAC based LC-MS/MS analysis relative to control
[11] = biological target: Serine/arginine repetitive matrix protein 1 (Mus musculus) (UniProt Q52KI8); assay: Inhibition of Srrm1 in mouse C2C12 cells assessed as reduction in phospho-sites occupancy at 4 uM after 5 hrs by SILAC based LC-MS/MS analysis relative to control
[12] = biological target: Band 4.1-like protein 1 (Mus musculus) (UniProt Q9Z2H5); assay: Inhibition of Epb41l1in mouse C2C12 cells assessed as reduction in phospho-sites occupancy at 4 uM after 5 hrs by SILAC based LC-MS/MS analysis relative to control
[13] = biological target: Protein transport protein Sec31A (Mus musculus) (UniProt Q3UPL0); assay: Inhibition of Sec31a in mouse C2C12 cells assessed as reduction in phospho-sites occupancy at 4 uM after 5 hrs by SILAC based LC-MS/MS analysis relative to control
[14] = biological target: Fermitin family homolog 2 (Mus musculus) (UniProt Q8CIB5); assay: Inhibition of Fermt2 in mouse C2C12 cells assessed as reduction in phospho-sites occupancy at 4 uM after 5 hrs by SILAC based LC-MS/MS analysis relative to control
[15] = biological target: 182 kDa tankyrase-1-binding protein (Mus musculus) (UniProt P58871); assay: Inhibition of tankyrase-1-binding protein in mouse C2C12 cells assessed as reduction in phospho-sites occupancy at 4 uM after 5 hrs by SILAC based LC-MS/MS analysis relative to control
[16] = biological target: Charged multivesicular body protein 3 (Mus musculus) (UniProt Q9CQ10); assay: Inhibition of Chmp3 in mouse C2C12 cells assessed as reduction in phospho-sites occupancy at 4 uM after 5 hrs by SILAC based LC-MS/MS analysis relative to control
[17] = biological target: La-related protein 1 (Mus musculus) (UniProt Q6ZQ58); assay: Inhibition of Larp1 in mouse C2C12 cells assessed as reduction in phospho-sites occupancy at 4 uM after 5 hrs by SILAC based LC-MS/MS analysis relative to control
[18] = biological target: Pleckstrin homology-like domain family B member 1 (Mus musculus) (UniProt Q6PDH0); assay: Inhibition of Phldb1 in mouse C2C12 cells assessed as reduction in phospho-sites occupancy at 4 uM after 5 hrs by SILAC based LC-MS/MS analysis relative to control
[19] = biological target: Protein IMPACT (Mus musculus) (UniProt O55091); assay: Inhibition of Impact in mouse C2C12 cells assessed as reduction in phospho-sites occupancy at 4 uM after 5 hrs by SILAC based LC-MS/MS analysis relative to control
[20] = biological target: Importin subunit alpha-4 (Mus musculus) (UniProt O35344); assay: Inhibition of Kpna3 in mouse C2C12 cells assessed as reduction in phospho-sites occupancy at 4 uM after 5 hrs by SILAC based LC-MS/MS analysis relative to control
[21] = biological target: Lamina-associated polypeptide 2, isoforms beta/delta/epsilon/gamma (Mus musculus) (UniProt Q61029); assay: Inhibition of LAP2B epsilon in mouse C2C12 cells assessed as reduction in phospho-sites occupancy at 4 uM after 5 hrs by SILAC based LC-MS/MS analysis relative to control
[22] = biological target: WASH complex subunit 2 (Mus musculus) (UniProt Q6PGL7); assay: Inhibition of Washc2 in mouse C2C12 cells assessed as reduction in phospho-sites occupancy at 4 uM after 5 hrs by SILAC based LC-MS/MS analysis relative to control
[23] = biological target: E3 ubiquitin-protein ligase NEDD4 (Mus musculus) (UniProt P46935); assay: Inhibition of Nedd4 in mouse C2C12 cells assessed as reduction in phospho-sites occupancy at 4 uM after 5 hrs by SILAC based LC-MS/MS analysis relative to control
[24] = biological target: T1, Casein kinase 2 (Mus musculus) (UniProt Q60737+P67871+O54833+Q8CH19); assay: Inhibition of CK2 in mouse C2C12 cells assessed as reduction in Akt phosphorylation at S129 residues at 1 to 4 uM by Western blot analysis; conditions: dose 1-4 µM
[25] = biological target: T1, Casein kinase 2 (Mus musculus); assay: Inhibition of CK2 in mouse C2C12 cells assessed as reduction in CK2 substrates phosphorylation at 1 to 4 uM by Western blot analysis; conditions: dose 1-4 µM

fold change (FC) [1]: 1.5
fold change (FC) [2]: 1.55
fold change (FC) [3]: 1.6
fold change (FC) [4]: 1.61
fold change (FC) [5]: 1.66
fold change (FC) [6]: 1.75
fold change (FC) [7]: 1.75
fold change (FC) [8]: 1.86
fold change (FC) [9]: 1.86
fold change (FC) [10]: 1.96
fold change (FC) [11]: 2.36
fold change (FC) [12]: 2.85
fold change (FC) [13]: 2.98
fold change (FC) [14]: 3.05
fold change (FC) [15]: 3.06
fold change (FC) [16]: 3.19
fold change (FC) [17]: 3.25
fold change (FC) [18]: 3.3
fold change (FC) [19]: 3.44
fold change (FC) [20]: 3.44
fold change (FC) [21]: 3.86
fold change (FC) [22]: 4.17
fold change (FC) [23]: 5.83
inhibition [24]: Active
inhibition [25]: Active
Structure (SMILES): COc1cc(/C=N/n2c(SC)nnc2-c2ccccc2)c(Br)cc1O
